According to patent US12168781B2, “Production method for T cells or NK cells, medium for culturing T cells or NK cells, method for culturing T cells or NK cells, method for maintaining undifferentiated state of undifferentiated T cells, and growth-accelerating agent for T cells or NK cells” (KIRIN HOLDINGS KABUSHIKI KAISHA, priority 2018, dated 2024):

Legend:
T-iPS-T cells [1] = assay: Number of viable T-iPS-T cells under feeder-free culture (CD3/CD28 Dynabeads, Cell Count Reagent SF, absorbance 450 nm/650 nm); type: cell-based, human; settings: T-iPS-T cells after 1st expansion, 6 days, DMSO control 0.225 ± 0.017
Procedure: T-iPS-T cells (1,500 cells/well) after 1st expansion were seeded and cultured in RPMI-1640 medium (SIGMA, R8758) supplemented with 15% FBS (CORNING, 35-076-CV, 35076104R), 1% PSG (SIGMA, G1146), PAA (50 μg/mL, Nacalai Tesque, 03420-52), ITS-G, IL-7 (5 ng/mL), IL-12 (50 ng/mL), IL-15 (5 ng/mL), IL-18 (50 ng/mL), IL-21 (20 ng/mL), and z-VAD-fmk (10 μM). The cells were stimulated by adding CD3/CD28 Dynabeads (Gibco, 11131D, the “Dynabeads” is a registered trademark) (4,500 beads/well) thereto, and 1,080 compounds [MedChemExpress, Apoptosis Compound Library (HY-L003), Cell Cycle/DNA Damage Compound Library (HY-L004), JAK/STAT Compound Library (HY-L008), MAPK Compound Library (HY-L010), NF-kappaB Compound Library (HY-L014), PI3K/Akt/mTOR Compound Library (HY-L015), and Wnt/Hedgehog/Notch Compound Library (HY-L020)] were added thereto (one type per well) at a final concentration of 1 μM, and then, the cells were cultured at 37° C. under 5% CO2.
DMSO (0.1%) that is a solvent for the compound was used as a control. After 6 days, the number of viable cells was measured using Cell Count Reagent SF (Nacalai Tesque, 07553) and a microplate reader (SoftMax Pro 5.X, Molecular Devices, 450 nm/650 nm).
A calibration curve for cell number was set as follows. When measuring the number of viable cells, 12-point serial dilution was performed for the same cells as those used in the screening, and the cells were seeded (0 to 1,536,000 cells/well) in RPMI-1640 medium supplemented with 15% FBS, 1% PSG, PAA, ITS-G, IL-7 (5 ng/mL) and IL-15 (5 ng/mL). The number of viable cells was measured together with the screening samples, and a calibration curve for WST-8 assay was formed.
In order to further evaluate the results obtained in Example 4, reproducibility was evaluated. As a method therefor, the same method as in Example 4 was used to carry out culturing and evaluation. As compounds, 20 compounds were selected and used among the compounds used in Example 4 including berbamine, and DMSO (0.1%) that is a solvent for the compound was used as a control. Note that in a statistical analysis, a Student's t-test was used (*: p<0.05).
The effect of a berbamine derivative on the proliferation of T cells was verified. As a method therefor, T-iPS-T cells after 1st expansion were cultured in the same manner as in Example 4, and berbamine (BBM) or each of 13 types of derivatives [BBMD1 to 13, Hebei Sundia MediTech Company Ltd.] was added thereto (one type per well) at a final concentration of 0.1 nM, 1 nM, 10 nM, 100 nM, or 1 μM, and then, the cells were cultured at 37° C. under 5% CO2. DMSO (0.1%) that is a solvent for the compound was used as a control.
After culturing for 6 days, the number of viable cells was measured using Cell Count Reagent SF (Nacalai Tesque, 07553) and a microplate reader (SoftMax Pro 5. X, Molecular Devices, 450 nm/650 nm), and the OD value was used as data. Note that in a statistical analysis, a Student's t-test was used (*: p<0.05). 1.

T-iPS-T cells [2] = assay: Feeder-free culture of T-iPS-T cells, FACS count of PI-negative cells and CD45RA(+)CCR7(+) cells; type: cell-based, human; settings: 6 days; for Number of CD45RA+CCR7+ cells: DMSO 3891 ± 3170; for Cell number: DMSO 16096 ± 10785
Procedure: After washing, the cells were resuspended in the staining solution containing PI. Half the amount was analyzed using a BD LSR Fortessa cytometer (BD Bioscience) equipped with HTS, and all cells were recorded.
The concentration dependence of the bisbenzylisoquinoline alkaloid represented by the formula (X-1) or the formula (X-2) in feeder-free proliferation of T-iPS-T cells was examined. T-iPS-T cells were cultured using alpha-MEM medium supplemented with 15% FBS, 1% PSG, PAA (50 μg/mL), ITS-G, IL-7 (5 ng/mL), IL-12 (50 ng/mL), IL-15 (5 ng/mL), IL-18 (50 ng/mL), IL-21 (20 ng/mL), and z-VAD-fmk (10 μM).
The effect on culturing of T-iPS-T cells was evaluated by comparing a known compound that contributes to the proliferation of memory T cells with berbamine. […] DMSO (0.1%) that is a solvent for the compound was used as a control.
The number of events of PI-negative cells and the number of events of CD45RA(+)CCR7(+) cells in the PI-negative cells, which were analyzed by FlowJo 9, were used as data. Note that in a statistical analysis, a Student's t-test was used (*: p<0.05).
The effect of the combined use of berbamine with a MAPK cascade inhibitor on the proliferation of memory T cells was examined. […] The final concentration of each compound was set to 1 μM. DMSO (0.1%) that is a solvent for the compound was used as a control.
The number of events (#Cells) of CD45RA(+)CCR7(+) cells in the PI-negative cell population analyzed by FlowJo 9 was plotted and graphed. Note that in a statistical analysis, a Student's t-test was used (*: p<0.05, **P<0.01, ***P<0.001, ****P<0.0001).

| Structure (SMILES) | number of viable cells (OD value) (T-iPS-T cells [1]; 0.1 nM) | number of viable cells (OD value) (T-iPS-T cells [1]; 1 nM) | number of viable cells (OD value) (T-iPS-T cells [1]; 10 nM) | number of viable cells (OD value) (T-iPS-T cells [1]; 100 nM) | number of viable cells (OD value) (T-iPS-T cells [1]; 1 μM) | Number of CD45RA+CCR7+ cells (T-iPS-T cells [2]; 1 nM) | Cell number (T-iPS-T cells [2]; 1 nM) | Number of CD45RA+CCR7+ cells (T-iPS-T cells [2]; 3 nM) | Cell number (T-iPS-T cells [2]; 3 nM) | Number of CD45RA+CCR7+ cells (T-iPS-T cells [2]; 10 nM) | Cell number (T-iPS-T cells [2]; 10 nM) | Number of CD45RA+CCR7+ cells (T-iPS-T cells [2]; 30 nM) | Cell number (T-iPS-T cells [2]; 30 nM) | Number of CD45RA+CCR7+ cells (T-iPS-T cells [2]; 100 nM) | Cell number (T-iPS-T cells [2]; 100 nM) | Number of CD45RA+CCR7+ cells (T-iPS-T cells [2]; 300 nM) | Cell number (T-iPS-T cells [2]; 300 nM) | Number of CD45RA+CCR7+ cells (T-iPS-T cells [2]; 1 μM) | Cell number (T-iPS-T cells [2]; 1 μM) | Number of CD45RA+CCR7+ cells (T-iPS-T cells [2]; 3 μM) | also measured |
| --- | --- | --- | --- | --- | --- | --- | --- | --- | --- | --- | --- | --- | --- | --- | --- | --- | --- | --- | --- | --- | --- |
| COc1cc2c3cc1Oc1c(OC)c(OC)cc4c1C(Cc1ccc(OCCCNC(=O)c5ccc(-c6ccc(C=O)cc6)cc5)c(c1)Oc1ccc(cc1)CC3N(C)CC2)N(C)CC4 (stereo not drawn) [BBMD11] | 0.270 ± 0.099 | 0.242 ± 0.046 | 0.300 ± 0.081^ | 0.425 ± 0.079 * | 0.239 ± 0.076 |  |  |  |  |  |  |  |  |  |  |  |  |  |  |  |  |
| COc1cc2c3cc1Oc1c(OC)c(OC)cc4c1C(Cc1ccc(OCCCNC(=O)c5cscn5)c(c1)Oc1ccc(cc1)CC3N(C)CC2)N(C)CC4 (stereo not drawn) [BBMD12] | 0.185 ± 0.072 | 0.234 ± 0.027 | 0.235 ± 0.010^ | 0.257 ± 0.008 * | 0.561 ± 0.035 *** |  |  |  |  |  |  |  |  |  |  |  |  |  |  |  |  |
| COc1cc2c3cc1Oc1c(OC)c(OC)cc4c1C(Cc1ccc(OC(=O)c5ccccc5)c(c1)Oc1ccc(cc1)CC3N(C)CC2)N(C)CC4 (stereo not drawn) [BBMD13] | 0.253 ± 0.022 | 0.292 ± 0.001 ** | 0.260 ± 0.011 * | 0.412 ± 0.085 * | 0.288 ± 0.041 |  |  |  |  |  |  |  |  |  |  |  |  |  |  |  |  |
| COc1ccc2cc1Oc1ccc(cc1)C[C@H]1c3c(cc4c(c3Oc3cc5c(cc3OC)CCN(C)[C@@H]5C2)OCO4)CCN1C [Cepharanthine, cepharanthine] |  |  |  |  |  | 5429 ± 3207 ** | 18312 ± 7127 | 5256 ± 3168 | 19212 ± 8368 | 5632 ± 3014 *** | 20590 ± 9995 | 7764 ± 3495 ** | 29158 ± 12980 * | 9486 ± 4802 * | 41856 ± 9113 ** | 13060 ± 7584 * | 52923 ± 5313 ** | 10741 ± 5793 | 48800 ± 17971 * | 9245 ± 4682 * | Cell number (T-iPS-T cells [2]; 3 μM): 31965 ± 19694; Number of CD45RA+CCR7+ cells (T-iPS-T cells [2]; 10 μM): 1447 ± 2117; Cell number (T-iPS-T cells [2]; 10 μM): 4884 ± 8378 |
| COc1cc2c3cc1Oc1c(OC)c(OC)cc4c1[C@@H](Cc1ccc(OC(=O)c5ccc([N+](=O)[O-])cc5)c(c1)Oc1ccc(cc1)C[C@@H]3N(C)CC2)N(C)CC4 [E6 Berbamine, E6-berbamine] |  |  |  |  |  | 6440 ± 4121 * | 20795 ± 11427 ** | 6205 ± 4137 * | 19420 ± 9845 ** | 6015 ± 4682 | 22404 ± 11035 *** | 7410 ± 4691 * | 28009 ± 13327 * | 10775 ± 5788 * | 44562 ± 11985 ** | 12148 ± 6414 * | 55682 ± 3508 ** | 5075 ± 3582 | 26964 ± 23925 | 2080 ± 3520 | Cell number (T-iPS-T cells [2]; 3 μM): 16367 ± 26569; Number of CD45RA+CCR7+ cells (T-iPS-T cells [2]; 10 μM): 1791 ± 3538; Cell number (T-iPS-T cells [2]; 10 μM): 8441 ± 16764 |
